Measured values: publication PMC13429874, “ABHD2 activity is not required for the non-genomic action of progesterone on human sperm” (Human Reproduction (Oxford, England), 2026)

Assays:
[1] = target: T1, full-length human ABHD2 (ABHD2^FL) (Homo sapiens, UniProt P08910); assay: ABHD2^FL enzymatic activity assay with 7-HCA substrate; assay type: biochemical; conditions: Supplementary Table S2; read-out: IC50 measured in ABHD2^FL in the 7-HCA Assay
T1 construct: TEV site-eGFP-8xHis (C, cleaved yes); made in house; host or cells: SF9 insect cells (baculovirus)
T1 sequence (P08910 1-425): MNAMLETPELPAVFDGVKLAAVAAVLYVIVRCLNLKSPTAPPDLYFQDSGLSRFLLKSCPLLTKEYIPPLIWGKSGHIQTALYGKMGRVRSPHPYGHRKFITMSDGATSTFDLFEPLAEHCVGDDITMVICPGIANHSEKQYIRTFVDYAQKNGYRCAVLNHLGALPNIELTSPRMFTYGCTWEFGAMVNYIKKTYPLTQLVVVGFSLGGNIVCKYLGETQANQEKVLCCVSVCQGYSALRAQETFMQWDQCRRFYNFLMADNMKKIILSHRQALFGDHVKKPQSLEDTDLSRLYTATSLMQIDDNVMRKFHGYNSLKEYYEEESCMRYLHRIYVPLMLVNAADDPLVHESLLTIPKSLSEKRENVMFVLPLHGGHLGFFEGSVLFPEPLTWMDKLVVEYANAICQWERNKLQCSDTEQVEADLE

[2] = system: human sperm; assay: Sperm intracellular Ca2+ measurements (Fluo-4); assay type: cell-based
Description: Measurements of the changes in sperm intracellular Ca^2+ concentration ([Ca^2+]i) were performed on motile human sperm purified by swim-up. Semen samples were allowed to liquefy for 15–60 min at 37°C, and 0.5–1 ml liquified semen was layered beneath 4 ml human tubal fluid medium (HTF; 97.8 mM NaCl, 4.69 mM KCl, 0.2 mM MgSO4, 0.37 mM KH2PO4, 2.04 mM CaCl2, 2.78 mM glucose, 0.33 mM sodium pyruvate, 21.4 mM lactic acid, 4 mM NaHCO3, and 21 mM HEPES pH 7.35 adjusted with NaOH) in 50 ml conical tubes. Motile sperm were allowed to swim up into the HTF for 60–90 min at 37°C, collected, washed twice (700 × g, 20 min, 37°C), and resuspended in HTF containing 3 mg/ml HSA at a density of 1 × 10^7 sperm/ml. Changes of [Ca^2+]i in motile human sperm were measured as previously described ([Rennhack et al., 2018]), using a fluorescence plate-reader assay (FLUOstar Omega, BMG LABTECH) with 384-well plates. Swim-up-purified sperm were loaded with Fluo4-AM (5 μM, Thermo Fisher Scientific, Waltham, MA, USA) and Pluronic F-127 (0.05% w/v) for 20 min at 37°C. Excess dye was removed by centrifugation at 700 × g for 5 min, supernatant removal, and resuspension to 5 × 10^6 sperm/ml in HTF.
For recordings, wells of a 384-well plate were filled with 50 μl of the dye-loaded sperm suspension. Fluorescence was excited at 480 nm, and emission was recorded at 520 nm using a plate reader (Fluostar Omega, BMG Labtech). After establishing a baseline for at least 60 s, 25 µl test compound solutions were added and the fluorescence response recorded. After 4 min, 7.5 µl progesterone was added to reach a final concentration of 3 µM, and ensuing changes in fluorescence were recorded. For the analysis of compound-evoked Ca^2+ signal, basal fluorescence (F0) was determined prior to compound addition. For the determination of inhibitory effects of compounds on progesterone-evoked Ca^2+ signals, basal fluorescence (F0) was determined before progesterone addition. The CatSper inhibitor TS150 ([Schierling et al., 2023]) was used as a control. Each compound was tested in technical duplicates across ≥3 biological replicates, using sperm from at least two donors, and performed on at least two separate days.
Data analysis and graphical representation were performed with GraphPad Prism software version 10.6.1 (San Diego, CA, USA). Changes in Fluo-4 fluorescence are depicted as ΔF/F0 (%), i.e. the change in fluorescence (ΔF) relative to the mean basal fluorescence (F0) before application of buffer or compounds/ligands, to correct for intra- and inter-experimental variations in basal fluorescence among individual wells or to correct for compound-evoked changes in fluorescence. Signal amplitudes evoked in the presence of compounds were normalized to the maximal signal amplitude evoked by 3 µM progesterone in the absence of the compound (set to 1) to ease comparisons between experiments.

[3] = target: T2, human ABHD11 (Homo sapiens, UniProt Q8NFV4); assay: ABHD11 colorimetric assay with p-nitrophenyl butyrate; assay type: biochemical; conditions: 10 µM compound, 500 µM p-NPB
T2 construct: residues V34—V315 of human ABHD11; His6-TEV site (N); made in house; host or cells: E. coli
T2 sequence (Q8NFV4 25-306 limits assumed): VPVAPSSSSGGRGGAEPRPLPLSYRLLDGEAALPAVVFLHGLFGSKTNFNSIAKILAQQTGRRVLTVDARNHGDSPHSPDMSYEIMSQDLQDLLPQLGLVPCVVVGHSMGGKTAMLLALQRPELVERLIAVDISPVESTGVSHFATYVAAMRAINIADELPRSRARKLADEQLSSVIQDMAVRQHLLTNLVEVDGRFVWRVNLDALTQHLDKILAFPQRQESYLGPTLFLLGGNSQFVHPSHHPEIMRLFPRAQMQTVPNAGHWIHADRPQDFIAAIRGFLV
Description: Enzymatic activities of ABHD10 and ABHD11 were measured in a colorimetric assay using p-nitrophenyl butyrate (p-NPB) as substrate. Enzymes at 1500 nM ABHD10 and 125 nM ABHD11 in 20 mM HEPES pH 7.5, 150 mM NaCl, and 2% (v/v) DMSO were pre-incubated in 96-well plates with 50 µM test compound for 30 min at 4°C. Plates were then equilibrated at 37°C for 2 min, and reactions were initiated by adding 160 µl of pre-warmed substrate solution (same buffer with 625 µM p-NPB) to a total volume of 200 µl, yielding final assay concentrations of 300 nM ABHD10, 25 nM ABHD11, and 500 µM pNPB. The substrate solution was prepared immediately before addition to the enzyme mixtures. Absorbance at 405 nm was recorded on a SpectraMax iD3 plate reader (Molecular Devices) for 20 min with continuous monitoring at 30 s intervals.

CC1CCCN(C(=O)c2ccccc2C(=O)c2ccccc2)C1 (stereo not shown) [Compound 4]
IC50 [1]: 1.2 µM | compound-evoked changes in [Ca2+]i ([2]; 10 µM compound): only minuscule changes | effect on progesterone-induced Ca2+ signal (amplitude and waveform) ([2]; compounds 10 µM, TS150 60 µM, progesterone 3 µM): similar | inhibition of ABHD11 [3]: no detectable inhibition
